Test results published in patent US20170146538A1, “PRL-3 AS A BIOMARKER FOR THE PROGNOSIS OF CANCER AND A TARGET FOR THERAPY” (Agency for Science, Technology and Research, priority 2014, published 2017).

How the values were obtained:
Format in all cases: cell-based, human
TF1-PRL-3 cells = assay: MTS cell viability assay of TF1-PRL-3 cells treated with inhibitors; details: 72 hr; for reduction in cell number compared to DMSO-treated control cells: 5 μM
Excerpt: FIG. 4. PRL-3 specifically activates c-Jun through ERK and JNK signaling pathways. A. SEAP reporter assay results measuring AP-1 activity in TF-1 cells overexpressing GFP (TF1-GFP) or GFP-PRL-3 (TF1-PRL-3) (mean±SD, n=3). B. (a-b) PRL-3 specifically upregulates c-Jun but not c-Fos. (a) Western blot analysis of TF1-GFP, TF1-PRL-3 and TF1-ITD cells. (b) Western blot analysis after knock-down of endogenous PRL-3 in TF1-ITD cells. GAPDH, loading control. NS, control non-silencing siRNA. C. (a-d) PRL-3-mediated upregulation of c-Jun is dependent on ERK and JNK pathways. (a) Western blot analysis after knock-down of endogenous PRL-3 in TF1-ITD and MOLM-14 cells. (b) Western blot analysis of TF1-GFP and TF1-PRL-3 cells. (c-d) Western blot analysis after knock-down of ERK1/2 or JNK in TF1-PRL-3 cells. GAPDH, loading control. NS, control non-silencing siRNA. D. […] Error bars represent the mean±SD from three independent experiments. AML Cells (1×10^4) were seeded into each well of 96-well tissue culture plates in 100 μl growth media and viable cells were measured after seeding with different inhibitors for 72 hr using the CellTiter^96 Aqueous cell proliferation assay kit. (Promega). Briefly, an aliquot of 20 μl MTS mixture was added at the indicated time of assay and reactions were performed at 37° C. for 2 hours. And absorbance was read at 490 nm wavelength using TECAN microplate reader. After establishment of linear relationship between cell numbers and absorbance from each cell line, acquired absorbance converted to cell number.

TF1-ITD cells = assay: Western blot analysis of TF1-ITD cells upon FLT3 or Src inhibition; details: various concentrations, 24 h, dose-dependent
Experimental: (§1) FIG. 2. […] Whole cell lysates were subjected to western blot analysis with indicated antibodies. GAPDH, loading control. A. (a-d) Western blot analysis of AML cells upon FLT3 inhibition. […] C. (a-b) Western blot analysis of AML cells upon Src inhibition.
(§2) Cells were lysed using modified RIPA buffer (50 mM Tris-HCl, 150 mM NaCl, 1% NP-40, pH 8.0, 1×protease inhibitor cocktail) and lysates were subjected to western blotting with indicated primary antibodies. Proteins recognized by the antibodies were detected using the Chemiluminescent Detection Kit (Pierce, Thermo Scientific, Rockford, Ill.).
(§3) Since STAT5 was known to be a critical downstream target of FLT3-ITD (Mizuki et al, 2000), we tested STAT5 expression level after treatment with FLT3-specific inhibitors; PKC412 or CEP-701 (Odgerel et al, 2007; Smith et al, 2004). […] We next examined whether FLT3-ITD-induced PRL-3 expression might be mediated by JAK or Src, two distinct upstream activators of STAT5 (Robinson et al, 2005; Spiekermann et al, 2003). […] To investigate the role of Src-mediated phosphorylation of STAT5 in FLT3-ITD positive AML cells. AML cells were treated with two distinct Src kinase inhibitors, SU6656 and PP2 (Blake et al, 2000; Nam et al, 2002).

MOLM-14 cells = assay: Western blot analysis of MOLM-14 cells upon FLT3 inhibition; details: various concentrations, 24 h, dose-dependent
Experimental: as §1, §2, §3

## Oc1c2ccccc2c2c3c(cccc13)N=N2 [SP600125]
TF1-PRL-3 cells
  reduction in cell number compared to DMSO-treated control cells: around 50%

## CN(C)S(=O)(=O)c1ccc2c(c1)/C(=C/c1cc3c([nH]1)CCCC3)C(=O)N2 [SU6656]
TF1-ITD cells
  PRL-3 protein levels: inhibited
  phosphorylation of STAT5: inhibited
  phosphorylation of Src: inhibited

## N#CC(=C(/N)Sc1ccccc1N)/C(C#N)=C(\N)Sc1ccccc1N [U0126]
TF1-PRL-3 cells
  reduction in cell number compared to DMSO-treated control cells: around 50%

## CO[C@@H]1[C@H](N(C)C(=O)c2ccccc2)C[C@H]2O[C@]1(C)n1c3ccccc3c3c4c(c5c6ccccc6n2c5c31)C(=O)NC4 [PKC412]
TF1-ITD cells
  PRL-3 protein levels: inhibited
  phosphorylation of FLT3: inhibited
  phosphorylation of STAT5: inhibited
  phosphorylation of Src: inhibited
MOLM-14 cells
  PRL-3 protein levels: inhibited
  phosphorylation of FLT3: inhibited
  phosphorylation of STAT5: inhibited
  phosphorylation of Src: inhibited

## COc1cc(/C=C/C(=O)CC(=O)/C=C/c2ccc(O)c(OC)c2)ccc1O [curcumin]
TF1-PRL-3 cells; 15 μM
  cell number, % of DMSO-treated cells: around 50%

## CC(C)(C)n1nc(-c2ccc(Cl)cc2)c2c(N)ncnc21 [PP2]
TF1-ITD cells
  PRL-3 protein levels: inhibited
  phosphorylation of STAT5: inhibited
  phosphorylation of Src: inhibited
